Source: patent US10392367B2, “IRE1 small molecule inhibitors” (QUENTIS THERAPEUTICS, INC., priority 2017, dated 2019)

Tests used:
[1] = molecular target: T1, IRE1a (Homo sapiens, UniProt O75460); experiment: IRE1a Endoribonuclease Nanoluciferase Assay (XBP1 luciferase reporter in 293 T cells); assay type: cell-based; settings: 293 T cells transfected with XBP1 luciferase reporter plasmid
Protocol: Compounds disclosed herein were assessed for disruption of IRE1 signaling using a IRE1a Endoribonuclease Nanoluciferase Assay. Briefly, 2.5×10^6 293 T cells were seeded in a 10 cm^2 tissue culture plate. About 24 hours later, the cells were transfected with Effectene. In a 15 mL Tube, the following was added: 2 μg XBP1 luciferase reporter plasmid (PGK-Luc2-P2A-XBP1u-Nanoluciferase-PEST); 300 μl EC buffer; and 16 μl Enhancer, followed by incubation at room temp for 5 minutes. Next, 60 μl Effectene (Qiagen 301427) was added, followed by incubation at room temperature for 10 minutes. 2.6 mL cDMEM media was added. Old media was aspirated from the cells, followed by addition of 7 mL fresh media. Full transfection mixture was added dropwise to cells. Cells were incubated for 6 hours, followed by tripsinization, centrifugation and resuspension in 11 mL media. 100 uL of cells were plated per a well in a 96 well plate. A day later, stressors of choice+/− inhibitors were added. To harvest, media was aspirated from cells completely, then 50 uL 1× passive lysis buffer (Promega: E1941) was added per well and put on shaker (300 rpm) for 30 minutes at room temperature. Cells were centrifuged, and 15 uL sample per well was added to a new, opaque white 384 well plate (Corning 3570). 15 uL OneGlo (nanoluciferase kit, Promega N1630) was added. Plates were spun down, placed on shaker (300 rpm) for 10 minutes. Plates were read on luminometer, 1000 ms integration time per well. 15 uL Stop and Glo (nanoluciferase kit) was added. Plates were spun down, placed on shaker (300 rpm) for 10 minutes. Plates were read on luminometer, 1000 ms second integration time per well. Recordings are provided below in Table 4.

[2] = molecular target: T1, IRE1a; experiment: In vitro FRET assay (XBP1 RNA probe cleavage by IRE1a); assay type: biochemical; set-up: purchased SignalChem; settings: SignalChem IRE1a protein 2 nM
Protocol: In vitro FRET assay was performed to evaluate the ability of select compounds to inhibit IRE1, the results of which are summarized in Table 3. To perform the in vitro FRET assay, 1× complete assay buffer (CAB; […] DTT, 50 mM sodium citrate pH 7.15, 1 mM magnesium acetate, 0.02% tween 20) was used to dilute SignalChem IRE1a protein to a final concentration of 2 nM. Selected compounds were serially diluted with DMSO in a non-binding black 384-well plate for a total of 15 ul in each well. 2 ul of the serially diluted compound or DMSO control were then added to new wells containing 98 ul of 1×CAB, for a total volume of 100 ul, 10 ul of which were then transferred to wells of a new plate. 5 ul of the diluted IRE1a was then added to each well. 5 ul of a […] XBP1 RNA probe was then added to each well. Fluorescence was then read over 30 minutes in kinetic mode (485/515 nm).
Two RNA probes were used, XBP1 wildtype (SEQ ID NO: 2) which is able to be spliced by active IRE1a or XBP1 mutant (SEQ ID NO: 3) which is unable to be spliced. Each probe contained a 5′ 6-FAM modification and a 3′ IOWA Black FQ modification.

T1 sequence (O75460 19-977): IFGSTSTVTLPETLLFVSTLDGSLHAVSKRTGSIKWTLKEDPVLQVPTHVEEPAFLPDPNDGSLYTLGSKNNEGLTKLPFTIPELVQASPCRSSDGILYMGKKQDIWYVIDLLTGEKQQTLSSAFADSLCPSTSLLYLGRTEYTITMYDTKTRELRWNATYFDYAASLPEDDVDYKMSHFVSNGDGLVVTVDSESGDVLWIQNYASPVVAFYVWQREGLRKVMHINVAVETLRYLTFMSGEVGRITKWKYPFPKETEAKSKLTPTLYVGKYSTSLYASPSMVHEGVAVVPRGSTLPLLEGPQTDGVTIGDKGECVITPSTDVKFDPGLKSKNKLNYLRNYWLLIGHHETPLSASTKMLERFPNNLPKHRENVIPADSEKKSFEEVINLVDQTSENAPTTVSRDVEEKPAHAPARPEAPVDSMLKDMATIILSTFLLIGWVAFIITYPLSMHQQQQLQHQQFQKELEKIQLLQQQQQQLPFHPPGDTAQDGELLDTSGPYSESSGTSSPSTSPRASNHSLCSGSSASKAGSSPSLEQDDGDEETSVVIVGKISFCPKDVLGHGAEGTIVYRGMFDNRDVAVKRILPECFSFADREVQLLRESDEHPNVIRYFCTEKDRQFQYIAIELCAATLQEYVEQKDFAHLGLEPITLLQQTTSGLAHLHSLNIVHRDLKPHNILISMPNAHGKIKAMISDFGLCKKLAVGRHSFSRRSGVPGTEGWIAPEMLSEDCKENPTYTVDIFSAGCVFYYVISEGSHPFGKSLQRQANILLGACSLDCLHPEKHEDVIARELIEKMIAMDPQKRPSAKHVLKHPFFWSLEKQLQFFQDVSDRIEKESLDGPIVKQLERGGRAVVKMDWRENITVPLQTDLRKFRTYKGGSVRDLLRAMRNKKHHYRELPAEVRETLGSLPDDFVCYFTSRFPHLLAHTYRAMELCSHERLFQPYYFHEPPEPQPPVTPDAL

Structure (SMILES)	EC50 [1] [nM]	IC50 [2] [nM]	Mean EC50 [1]
Cn1nc(NC(=O)Cc2cccc(C(F)(F)F)c2)cc1-c1ccc2nc(N[C@H]3CC[C@H](N)CC3)ncc2c1 [Compound 1, N-(5-(2-(((1r,4r)-4-aminocyclohexyl)amino)quinazolin-6-yl)-1-methyl-1H-pyrazol-3-yl)-2-(3-(trifluoromethyl)phenyl)acetamide]	> 100	50 to 100	–
CCc1cc(-c2cc(NC(=O)Cc3cccc(C(F)(F)F)c3)nn2C)cc2cnc(N[C@H]3CC[C@H](N)CC3)nc12 [Compound 2, N-(5-(2-(((1r,4r)-4-aminocyclohexyl)amino)-8-ethylquinazolin-6-yl)-1-methyl-1H-pyrazol-3-yl)-2-(3-(trifluoromethyl)phenyl)acetamide]	50 to 100	≤ 5	–
CCc1cc(-c2cc(NC(=O)Nc3ccc(OC4CCN(C)CC4)c(C(F)(F)F)c3)nn2C)cc2cnc(N[C@H]3CC[C@H](N)CC3)nc12 [Compound 4; Formic Acid, 1-(5-(2-(((1r,4r)-4-aminocyclohexyl)amino)-8-ethylquinazolin-6-yl)-1-methyl-1H-pyrazol-3-yl)-3-(4-((1-methylpiperidin-4-yl)oxy)-3-(trifluoromethyl)phenyl)urea]	≤ 5	≤ 5	–
CCc1cc(-c2cc(NC(=O)Cc3ccc(C(F)(F)F)cc3)nn2C)cc2cnc(N[C@H]3CC[C@H](N)CC3)nc12 [Compound 6, N-(5-(2-(((1r,4r)-4-aminocyclohexyl)amino)-8-ethylquinazolin-6-yl)-1-methyl-1H-pyrazol-3-yl)-2-(4-(trifluoromethyl)phenyl)acetamide]	> 100	≤ 5	–
CCc1cc(-c2cc(NC(=O)Cc3ccc(C(F)(F)F)c(F)c3)nn2C)cc2cnc(N[C@H]3CC[C@H](N)CC3)nc12 [Compound 7, N-(5-(2-(((1r,4r)-4-aminocyclohexyl)amino)-8-ethylquinazolin-6-yl)-1-methyl-1H-pyrazol-3-yl)-2-(3-fluoro-4-(trifluoromethyl)phenyl)acetamide]	> 100	≤ 5	–
CCc1cc(-c2cc(NC(=O)Cc3cccc(OC(F)(F)F)c3)nn2C)cc2cnc(N[C@H]3CC[C@H](N)CC3)nc12 [Compound 11, N-(5-(2-(((1r,4r)-4-aminocyclohexyl)amino)-8-ethylquinazolin-6-yl)-1-methyl-1H-pyrazol-3-yl)-2-(3-(trifluoromethoxy)phenyl)acetamide]	> 100	5 to 50	–
CCc1cc(-c2cc(NC(=O)Cc3cc(C(F)(F)F)ccc3C(F)(F)F)nn2C)cc2cnc(N[C@H]3CC[C@H](N)CC3)nc12 [Compound 12, N-(5-(2-(((1r,4r)-4-aminocyclohexyl)amino)-8-ethylquinazolin-6-yl)-1-methyl-1H-pyrazol-3-yl)-2-(2,5-bis(trifluoromethyl)phenyl)acetamide]	–	≤ 5	A-B
CCc1cc(-c2cc(NC(=O)Cc3cc(F)ccc3C(F)(F)F)nn2C)cc2cnc(N[C@H]3CC[C@H](N)CC3)nc12 [Compound 13, N-(5-(2-(((1r,4r)-4-aminocyclohexyl)amino)-8-ethylquinazolin-6-yl)-1-methyl-1H-pyrazol-3-yl)-2-(5-fluoro-2-(trifluoromethyl)phenyl)acetamide]	> 100	5 to 50	–
CCc1cc(-c2cc(NC(=O)C(CC)c3ccccc3)nn2C)cc2cnc(N[C@H]3CC[C@H](N)CC3)nc12 (stereo partly shown) [Compound 16, N-(5-(2-(((1r,4r)-4-aminocyclohexyl)amino)-8-ethylquinazolin-6-yl)-1-methyl-1H-pyrazol-3-yl)-2-phenylbutanamide]	> 100	≤ 5	–
CCc1cc(-c2cc(NC(=O)Cc3ccc(Cl)c(C(F)(F)F)c3)nn2C)cc2cnc(N[C@H]3CC[C@H](N)CC3)nc12 [Compound 18, N-(5-(2-(((1r,4r)-4-aminocyclohexyl)amino)-8-ethylquinazolin-6-yl)-1-methyl-1H-pyrazol-3-yl)-2-(4-chloro-3-(trifluoromethyl)phenyl)acetamide]	> 100	5 to 50	–
CCc1cc(-c2cc(NC(=O)Nc3cccc(C(F)(F)F)c3)nn2C)cc2cnc(N[C@H]3CC[C@H](N)CC3)nc12 [Compound 19, 1-(5-(2-(((1r,4r)-4-aminocyclohexyl)amino)-8-ethylquinazolin-6-yl)-1-methyl-1H-pyrazol-3-yl)-3-(3-(trifluoromethyl)phenyl)urea]	5 to 50	≤ 5	–
CCc1cc(-c2cc(NC(=O)C(C)c3cccc(C(F)(F)F)c3)nn2C)cc2cnc(N[C@H]3CC[C@H](N)CC3)nc12 (stereo partly shown) [Compound 25, N-(5-(2-(((1r,4r)-4-aminocyclohexyl)amino)-8-ethylquinazolin-6-yl)-1-methyl-1H-pyrazol-3-yl)-2-(3-(trifluoromethyl)phenyl)propanamide]	> 100	5 to 50	–

Results, then the molecule that gave them:

EC50 [1] [nM]	IC50 [2] [nM]	Mean EC50 [1]	Structure (SMILES)
> 100	5 to 50	–	CCc1cc(-c2cc(NC(=O)Cc3cc(C)cc(F)c3)nn2C)cc2cnc(N[C@H]3CC[C@H](N)CC3)nc12 [Compound 27, N-(5-(2-(((1r,4r)-4-aminocyclohexyl)amino)-8-ethylquinazolin-6-yl)-1-methyl-1H-pyrazol-3-yl)-2-(3-fluoro-5-methylphenyl)acetamide]
≤ 5	≤ 5	–	CCc1cc(-c2cc(NC(=O)Nc3ccc(OCCCNC)c(C(F)(F)F)c3)nn2C)cc2cnc(N[C@H]3CC[C@H](N)CC3)nc12 [Compound 29, 1-(5-(2-(((1r,4r)-4-aminocyclohexyl)amino)-8-ethylquinazolin-6-yl)-1-methyl-1H-pyrazol-3-yl)-3-(4-(3-(methylamino)propoxy)-3-(trifluoromethyl)phenyl)urea]
5 to 50	≤ 5	–	CCc1cc(-c2cc(NC(=O)Cc3ccc(OCCCNC)c(C(F)(F)F)c3)nn2C)cc2cnc(N[C@H]3CC[C@H](N)CC3)nc12 [Compound 30, N-(5-(2-(((1r,4r)-4-aminocyclohexyl)amino)-8-ethylquinazolin-6-yl)-1-methyl-1H-pyrazol-3-yl)-2-(4-(3-(methylamino)propoxy)-3-(trifluoromethyl)phenyl)acetamide]
> 100	> 100	–	Cn1nc(NC(=O)Cc2cccc(C(F)(F)F)c2)cc1-c1cc2cnc(N[C@H]3CC[C@H](N)CC3)nc2c2ccccc12 [Compound 31, N-(5-(2-(((1r,4r)-4-aminocyclohexyl)amino)benzo[h]quinazolin-6-yl)-1-methyl-1H-pyrazol-3-yl)-2-(3-(trifluoromethyl)phenyl)acetamide]
–	50 to 100	–	CCc1cc(-c2cc(NC(=O)Cc3cc(C(F)(F)F)ccc3C(F)(F)F)nn2C)cc2cnc(N[C@H]3CC[C@](C)(N)CC3)nc12 [Compound 49, N-(5-(2-(((1r,4r)-4-amino-4-methylcyclohexyl)amino)-8-ethylquinazolin-6-yl)-1-methyl-1H-pyrazol-3-yl)-2-(2,5-bis(trifluoromethyl)phenyl)acetamide]
–	50 to 100	–	CCc1cc(-c2cc(NC(=O)Cc3cc(C(F)(F)F)ccc3C(F)(F)F)nn2C)cc2cnc(N[C@H]3CC[C@@](C)(N)CC3)nc12 [Compound 50, N-(5-(2-(((1s,4s)-4-amino-4-methylcyclohexyl)amino)-8-ethylquinazolin-6-yl)-1-methyl-1H-pyrazol-3-yl)-2-(2,5-bis(trifluoromethyl)phenyl)acetamide]
